Patent US12448394B2, “Heterocyclic pyrazole derivatives as type III receptor tyrosine kinase inhibitors” (DEVELOPMENT CENTER FOR BIOTECHNOLOGY, priority 2019, dated 2025)

Key:
[1] = test system: A375 melanoma cell with BRAF V600E mutation; assay: A375 cell proliferation assay (counter screen); type: cell-based, human; conditions: Homo sapiens, A-375, A375 cells, 72 hours treatment, CellTiter96, read-out: anti-proliferation activity A375 BRAF V600E, IC50 ranking
In short: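 A375 cells (BRAF V600E) seeded at 2000 cells/well in DMEM with 10% FBS, settled overnight at 37° C, 5% CO2, then exposed to increasing compound concentrations for 72 hours. Viability read by MTS-type CellTiter96 AQueous reagent, absorbance at 490 nm after 2–4 hours.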

[2] = test system: Molm-14 human acute myeloid leukemia cell with FLT3-ITD mutation; assay: Molm-14 cell proliferation assay (CellTiter 96); type: cell-based; conditions: Homo sapiens; Molm-14 cells, 72 hours treatment, CellTiter96; read-out: anti-proliferation activity Molm-14 (FLT3-ITD), IC50 ranking
In short: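 Molm-14 (FLT3-ITD AML) cells in RPMI 1640 with 10% heat-inactivated FBS were seeded at 25000 cells/well, incubated overnight at 37° C, 5% CO2, then treated with increasing compound concentrations for 72 hours. Viability was read as absorbance at 490 nm after 2˜4 hours with CellTiter96 AQueous One reagent.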

[3] = test system: THP-1 human acute monocytic leukemia cell with NRAS G12D mutation; assay: THP-1 cell proliferation assay (counter screen); type: cell-based; conditions: Homo sapiens, THP-1 cells, 72 hours treatment, CellTiter96, read-out: anti-proliferation activity THP-1 NRAS N12D, IC50 ranking
In short: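 THP-1 cells (NRAS G12D, growth independent of class III RTK signaling) seeded at 5000 cells/well overnight, then exposed to increasing compound concentrations for 72 h at 37° C, 5% CO2. Viability read by CellTiter96 AQueous One reagent (2–4 h) as absorbance at 490 nm.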

[4] = test system: HCC827 NSCLC cell with EGFR exon 19 deletion mutation; assay: HCC827 cell proliferation assay (counter screen); type: cell-based, human; conditions: Homo sapiens, HCC827 cells, 72 hours treatment, CellTiter96, read-out: anti-proliferation activity HCC827 EGFR Exon19 del, IC50 ranking
In short: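 HCC827 cells (EGFR exon 19 deletion) were seeded at 8000 cells/well in RPMI1640 with 10% FBS, then exposed to increasing compound concentrations for 72 h at 37 °C. Viability was read by CellTiter96 AQueous One (MTS), absorbance 490 nm after 2–4 h.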

PDGFRα kinase = target: T1, PDGFRα kinase (Homo sapiens, UniProt P16234); assay: PDGFRα kinase assay (AlphaScreen); type: biochemical; conditions: read-out: Ranking of IC50 values, PDGFRα
T1 construct: purchased SignalChem
T1 sequence (P16234 24-1089): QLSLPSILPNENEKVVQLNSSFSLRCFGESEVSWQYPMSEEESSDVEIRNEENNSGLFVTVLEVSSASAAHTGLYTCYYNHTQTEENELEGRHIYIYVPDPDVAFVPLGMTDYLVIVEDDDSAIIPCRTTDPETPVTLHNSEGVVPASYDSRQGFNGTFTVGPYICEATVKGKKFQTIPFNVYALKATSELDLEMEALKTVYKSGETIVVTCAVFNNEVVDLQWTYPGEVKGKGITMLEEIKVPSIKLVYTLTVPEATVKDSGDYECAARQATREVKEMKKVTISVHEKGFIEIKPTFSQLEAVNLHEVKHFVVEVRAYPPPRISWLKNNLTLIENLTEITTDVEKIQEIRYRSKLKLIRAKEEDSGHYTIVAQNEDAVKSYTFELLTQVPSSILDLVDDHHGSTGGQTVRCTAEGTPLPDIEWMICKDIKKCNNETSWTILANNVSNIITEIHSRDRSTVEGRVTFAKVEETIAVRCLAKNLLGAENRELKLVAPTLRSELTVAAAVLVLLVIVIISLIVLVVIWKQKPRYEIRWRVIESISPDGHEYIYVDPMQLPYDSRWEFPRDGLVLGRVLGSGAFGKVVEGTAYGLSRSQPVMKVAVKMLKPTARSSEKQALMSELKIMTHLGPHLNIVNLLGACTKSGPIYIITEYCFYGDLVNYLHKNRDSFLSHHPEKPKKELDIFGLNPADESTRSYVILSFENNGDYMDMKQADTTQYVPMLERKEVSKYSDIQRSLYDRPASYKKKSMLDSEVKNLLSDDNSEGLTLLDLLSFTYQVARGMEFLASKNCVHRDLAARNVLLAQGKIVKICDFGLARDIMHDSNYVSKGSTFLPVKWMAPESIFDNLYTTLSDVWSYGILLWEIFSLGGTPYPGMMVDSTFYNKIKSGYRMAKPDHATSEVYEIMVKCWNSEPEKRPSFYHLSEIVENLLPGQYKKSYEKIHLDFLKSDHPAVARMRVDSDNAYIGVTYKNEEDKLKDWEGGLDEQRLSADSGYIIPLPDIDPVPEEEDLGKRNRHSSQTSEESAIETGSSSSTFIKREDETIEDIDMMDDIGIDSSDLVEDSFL
In short: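 Recombinant PDGFRα (1.5 ng) phosphorylated biotinylated poly(Glu4:Tyr1) with 10 μM ATP in MOPS pH 7.0 with 10 mM MgCl2, 30 min at 30 °C, stopped with EDTA. Product detected by AlphaScreen; IC50 from serial dilutions run in duplicate.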

[5] = test system: MV4-11 human acute myeloid leukemia cell with FLT3-ITD mutation; assay: MV4-11 cell proliferation assay (CellTiter 96); type: cell-based; conditions: Homo sapiens, MV4-11, 72 h, MV4-11 cells, 72 hours treatment, CellTiter96; read-out: anti-proliferation activity MV4-11 (FLT3-ITD), IC50 ranking
In short: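 Cells seeded at 6500/well in IMDM with 10% heat-inactivated FBS, left overnight at 37 °C, 5% CO2, then exposed to increasing compound concentrations for 72 h. Viability read as absorbance at 490 nm after 2–4 h with CellTiter96 AQueous One reagent.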

Row | SMILES | IC50 [2] [nM] | IC50 (PDGFRα kinase) [nM] | IC50 [5] [nM] | IC50 [1] [µM] | IC50 [3] [µM] | IC50 [4] [µM]
1 | COc1ccc(-c2cc3c(s2)Cc2c(-c4ccc5cnn(C)c5c4)n[nH]c2-3)cn1 [Compound 4, 6-(6-methoxypyridin-3-yl)-3-(1-methyl-1H-indazol-6-yl)-1,4-dihydrothieno [2′,3′:4,5]cyclopenta[1,2-c] pyrazole] | 100 to 300 | 10 to 30 | 100 to 300 | > 10 | > 10 | > 10
2 | Cc1n[nH]c2cc(-c3n[nH]c4c3Cc3sc(-c5ccc(CN6CCOCC6)cc5)cc3-4)ccc12 [Compound 81, 4-(4-(3-(3-methyl-1H-indazol-6-yl)-1,4-dihydro-thieno[2′,3′:4,5]cyclopenta [1,2-c]pyrazol-6-yl)benzyl)morpholine] | 300 to 1000 | 1 to 10 | 100 to 300 | 1 to 10 | 1 to 10 | > 10
3 | Cn1ncc2ccc(-c3n[nH]c4c3Cc3sc(-c5ccc(N6CCOCC6)nc5)cc3-4)cc21 [Compound 82, 4-(5-(3-(1-methyl-1H-indazol-6-yl)-1,4-dihydro-thieno[2′,3′:4,5]cyclopenta [1,2-c]pyrazol-6-yl)pyridin-2-yl)morpholine] | 300 to 1000 | 100 to 300 | 100 to 300 | 1 to 10 | > 10 | > 10
4 | CN1CCN(c2ccc(-c3cc4c(s3)Cc3c(-c5ccc6cnn(C)c6c5)n[nH]c3-4)cn2)CC1 [Compound 85, 3-(1-methyl-1H-indazol-6-yl)-6-(6-(4-methyl-piperazin-1-yl)pyridin-3-yl)-1,4-dihydrothieno [2′,3′:4,5]cyclopenta [1,2-c]pyrazole] | 300 to 1000 | 1 to 10 | < 30 | 1 to 10 | > 10 | > 10
5 | Cn1ncc2ccc(-c3n[nH]c4c3Cc3sc(-c5ccnc(Cl)c5)cc3-4)cc21 [Compound 86, 6-(2-chloropyridin-4-yl)-3-(1-methyl-1H-indazol-6-yl)-1,4-dihydrothieno [2′,3′:4,5]cyclopenta [1,2-c]pyrazole] | 100 to 300 | 10 to 30 | 30 to 100 | > 10 | > 10 | > 10
6 | CN1CCN(c2cc(-c3cc4c(s3)Cc3c(-c5ccc6cnn(C)c6c5)n[nH]c3-4)ccn2)CC1 [Compound 87, 3-(1-methyl-1H-indazol-6-yl)-6-(2-(4-methyl-piperazin-1-yl)pyridin-4-yl)-1,4-dihydrothieno [2′,3′:4,5]cyclopenta [1,2-c]pyrazole] | 300 to 1000 | 1 to 10 | 30 to 100 | > 10 | > 10 | > 10
7 | Cn1ncc2ccc(-c3n[nH]c4c3Cc3sc(-c5ccc(CN6CCOCC6)c(F)c5F)cc3-4)cc21 [Compound 88, 4-(2,3-difluoro-4-(3-(1-methyl-1H-indazol-6-yl)-1,4-dihydrothieno [2′,3′:4,5]cyclopenta [1,2-c]pyrazol-6-yl)benzyl)morpholine] | 300 to 1000 | 30 to 100 | 300 to 1000 | > 10 | > 10 | > 10
8 | Cn1ncc2ccc(-c3n[nH]c4c3Cc3sc(-c5ccc(CN6CCOCC6)cc5OC(F)(F)F)cc3-4)cc21 [Compound 90, 4-(4-(3-(1-methyl-1H-indazol-6-yl)-1,4-dihydro-thieno[2′,3′:4,5]cyclopenta [1,2-c]pyrazol-6-yl)-3-(trifluoromethoxy)benzyl) morpholine] | 300 to 1000 | 100 to 300 | 300 to 1000 | > 10 | > 10 | > 10

More lines, main results first:

Row | IC50 [2] [nM] | IC50 (PDGFRα kinase) [nM] | IC50 [5] [nM] | SMILES | IC50 [1] [µM] | IC50 [3] [µM] | IC50 [4] [µM]
9 | 30 to 100 | 10 to 30 | 30 to 100 | COc1ccc(-c2cc3c(s2)Cc2c(-c4ccc5[nH]ncc5c4)n[nH]c2-3)cn1 [Compound 1, 3-(1H-indazol-5-yl)-6-(6-methoxypyridin-3-yl)-1,4-dihydrothieno[2′,3′:4,5] cyclopenta[1,2-c]pyrazole] | > 10 | > 10 | > 10
10 | 30 to 100 | 10 to 30 | 30 to 100 | COc1ccc(-c2cc3c(s2)Cc2c(-c4ccc5cn[nH]c5c4)n[nH]c2-3)cn1 [Compound 2, 3-(1H-indazol-6-yl)-6-(6-methoxypyridin-3-yl)-1,4-dihydrothieno[2′,3′:4,5] cyclopenta[1,2-c]pyrazole] | > 10 | > 10 | > 10
11 | < 30 | 1 to 10 | < 30 | Nc1ccc(-c2cc3c(s2)Cc2c(-c4ccc5cn[nH]c5c4)n[nH]c2-3)cn1 [Compound 3, 5-(3-(1H-indazol-6-yl)-1,4-dihydrothieno[2′,3′:4,5]cyclopenta[1,2-c]pyrazol-6-yl)pyridin-2-amine] | > 10 | > 10 | > 10
12 | 30 to 100 | 1 to 10 | 30 to 100 | Cc1ccc(-c2cc3c(s2)Cc2c(-c4ccc5cn[nH]c5c4)n[nH]c2-3)cn1 [Compound 30, 3-(1H-indazol-6-yl)-6-(6-methylpyridin-3-yl)-1,4-dihydrothieno[2′,3′:4,5] cyclopenta[1,2-c]pyrazole] | > 10 | > 10 | > 10
13 | 30 to 100 | 1 to 10 | < 30 | Cc1ccc(-c2cc3c(s2)Cc2c(-c4ccc5[nH]ncc5c4)n[nH]c2-3)cn1 [Compound 36, 3-(1H-indazol-5-yl)-6-(6-methylpyridin-3-yl)-1,4-dihydrothieno[2′,3′:4,5] cyclopenta[1,2-c]pyrazole] | > 10 | > 10 | > 10
14 | < 30 | 1 to 10 | < 30 | Nc1ccc(-c2cc3c(s2)Cc2c(-c4ccc5[nH]ncc5c4)n[nH]c2-3)cn1 [Compound 40, 5-(3-(1H-indazol-5-yl)-1,4-dihydrothieno [2′,3′:4,5]cyclopenta [1,2-c]pyrazol-6-yl) pyridin-2-amine] | 1 to 10 | 1 to 10 | 1 to 10
15 | 30 to 100 | 10 to 30 | < 30 | Cn1ncc2ccc(-c3n[nH]c4c3Cc3sc(-c5ccc(CN6CCOC6=O)cc5)cc3-4)cc21 [Compound 62, 3-(4-(3-(1-methyl-1H-indazol-6-yl)-1,4-dihydro-thieno[2′,3′:4,5]cyclopenta [1,2-c]pyrazol-6-yl)benzyl)oxazolidin-2-one] | > 10 | > 10 | > 10
16 | < 30 | 1 to 10 | < 30 | CN1CCN(Cc2ccc(-c3cc4c(s3)Cc3c(-c5ccc6cn[nH]c6c5)n[nH]c3-4)cc2)CC1 [Compound 83, 3-(1H-indazol-6-yl)-6-(4-((4-methylpiperazin-1-yl)methyl)phenyl)-1,4-dihydrothieno[2′,3′:4,5] cyclopenta[1,2-c]pyrazole] | > 10 | > 10 | > 10
17 | < 30 | 1 to 10 | < 30 | CN1CCN(Cc2ccc(-c3cc4c(s3)Cc3c(-c5ccc6cnn(C)c6c5)n[nH]c3-4)cc2)CC1 [Compound 84, 3-(1-methyl-1H-indazol-6-yl)-6-(4-((4-methylpiperazin-1-yl)methyl)phenyl)-1,4-dihydrothieno [2′,3′:4,5]cyclopenta [1,2-c]pyrazole] | > 10 | > 10 | > 10
18 | 30 to 100 | 1 to 10 | 30 to 100 | Cn1nnc2ccc(-c3n[nH]c4c3Cc3sc(-c5ccc(CN6CCOCC6)cc5)cc3-4)cc21 [Compound 89, 4-(4-(3-(1-methyl-1H-benzo[d][1,2,3]triazol-6-yl)-1,4-dihydrothieno [2′,3′:4,5]cyclopenta [1,2-c]pyrazol-6-yl)benzyl)morpholine] | > 10 | > 10 | > 10
